Data as given in PubChem BioAssay (NCI).
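Results reflect a 48-hour exposure of cells in 96-well plates to compound at five concentrations. TGI marks complete inhibition of growth.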

Columns and labels:
Experiment in all cases: NCI-60 cell line screen, 48 h
PC-3 prostate = system: PC-3 prostate
UACC-62 melanoma = system: UACC-62 melanoma
DU-145 prostate = system: DU-145 prostate
OVCAR-8 ovarian = system: OVCAR-8 ovarian
SK-MEL-28 melanoma = system: SK-MEL-28 melanoma
SK-MEL-5 melanoma = system: SK-MEL-5 melanoma
SNB-19 CNS = system: SNB-19 CNS
TK-10 renal = system: TK-10 renal
UACC-257 melanoma = system: UACC-257 melanoma
RXF 393 renal = system: RXF 393 renal

SMILES	TGI (PC-3 prostate)	TGI (UACC-62 melanoma)	TGI (DU-145 prostate)	TGI (OVCAR-8 ovarian)	TGI (SK-MEL-28 melanoma)	TGI (SK-MEL-5 melanoma)	TGI (SNB-19 CNS)	TGI (TK-10 renal)	TGI (UACC-257 melanoma)	TGI (RXF 393 renal)
O=C(CC(=O)Nc1ccccc1)NNC(c1cc(N=Nc2ccc(Br)cc2)ccc1O)P(O)O (stereo not given)	> 10 µM	9.13 µM	> 10 µM	> 10 µM	> 10 µM	> 10 µM	> 10 µM	> 10 µM	> 10 µM	> 10 µM
COc1cc2[nH]c(-c3ccccc3)cc(=O)c2c(OC)c1OC	> 100 µM	> 100 µM	> 100 µM	> 100 µM	> 100 µM	> 100 µM	> 100 µM	> 100 µM	> 100 µM	> 100 µM
CCN1C(=O)C(=C/C=C/c2ccc(N(CC)CC)cc2)C(=O)N(CC)C1=S	> 100 µM	> 100 µM	> 100 µM	> 100 µM	> 100 µM	> 100 µM	> 100 µM	> 100 µM	> 100 µM	> 100 µM
CC#CC(O)(C(=O)OC1CC(C)N(C)C(C)(C)C1)C1CCCC1 (stereo not given)	> 100 µM	> 100 µM	> 100 µM	> 100 µM	> 100 µM	> 100 µM	> 100 µM	> 100 µM	> 100 µM	> 100 µM
